Results from patent US20050203086A1, “Methods of treatment using an EP2 selective receptor agonist” (Pfizer Inc., priority 2004, published 2005).

Molecular target: T1, prostaglandin E2 type 2 (EP2) receptors (Homo sapiens, UniProt P43116)
T1 construct: These full length receptors are used to prepare 293S cells expressing the EP1, EP2, EP3 and EP4 receptors; expressed in transfected cells; membranes
Experiment: Assay for Binding to Prostaglandin E2 Receptors (3H-prostaglandin E2 displacement, membranes of transfected 293S cells)
Conditions: concentration displacing 50% of specifically bound 3H-prostaglandin E2, 1 hour at 25° C.
Method: Membrane Preparation: All operations are performed at […]. Transfected cells expressing prostaglandin E2 type 1 receptors (EP1), type 2 (EP2), type 3 (EP3) or type 4 (EP4) receptors are harvested and suspended to 2 million cells per ml in Buffer A [50 mM Tris-HCl (pH 7.4), 10 mM MgCl2, 1 mM EDTA, 1 mM Pefabloc peptide, (Boehringer Mannheim Corp., Indianapolis, Ind.), 10 uM Phosporamidon peptide, (Sigma, St. Louis, Mo.), 1 uM pepstatin A peptide, (Sigma, St. Louis, Mo.), 10 uM elastatinal peptide, (Sigma, St. Louis, Mo.), 100 uM antipain peptide, (Sigma, St. Louis, Mo.)]. The cells are lysed by sonification with a Branson Sonifier (Model #250, Branson Ultrasonics Corporation, Danbury, Conn.) in 2 fifteen second bursts. Unlysed cells and debris are removed by centrifugation, at 100×g for 10 min. Membranes are then harvested by centrifugation at 45,000×g for 30 minutes. […] Resuspended membranes are then stored frozen at −80° C. until use.
Binding Assay: Frozen membranes prepared as above are thawed and diluted to 1 mg protein per ml in Buffer A above. […] The membranes with bound ^3H-prostaglandin E2 are trapped by the filter, while the buffer and unbound ^3H-prostaglandin E2 pass through the filter into waste. Each sample is then washed 3 times with 3 ml of [50 mM Tris-HCl (pH 7.4), 10 mM MgCl2, 1 mM EDTA]. The filters are then dried by heating in a microwave oven.
Typically, PCR (polymerase chain reaction) primers corresponding to the 5′ and 3′ ends of the published full length receptor are made according to the well known methods disclosed above and are used in an RT-PCR reaction using the total RNA from human kidney (for EP1), human lung (for EP2), human lung (for EP3) or human lymphocytes (for EP4) as a source. PCR products are cloned by the TA overhang method into pCR2.1 (Invitrogen, Carlsbad, Calif.) and identity of the cloned receptor is confirmed by DNA sequencing.
Stable cell lines expressing the receptor are established following selection of transfected cells with G418.

T1 sequence (P43116 whole entry): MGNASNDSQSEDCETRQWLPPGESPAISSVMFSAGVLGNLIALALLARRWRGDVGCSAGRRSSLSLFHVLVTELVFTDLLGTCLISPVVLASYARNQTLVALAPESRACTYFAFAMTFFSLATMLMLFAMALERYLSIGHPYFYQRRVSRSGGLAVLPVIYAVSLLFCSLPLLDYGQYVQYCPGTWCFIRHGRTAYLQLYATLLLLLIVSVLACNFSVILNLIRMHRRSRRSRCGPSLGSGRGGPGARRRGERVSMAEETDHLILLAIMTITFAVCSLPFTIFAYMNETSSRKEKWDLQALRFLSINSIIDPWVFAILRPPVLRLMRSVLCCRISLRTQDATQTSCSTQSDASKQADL

IC50 [nM]	Compound
8	O=C(O)Cc1cccc(CN(Cc2ccc(-c3ncccn3)cc2)S(=O)(=O)c2cccnc2)c1 [Example 1t, (3-(((Pyridine-3-sulfonyl)-(4-pyrimidin-2-yl-benzyl)-amino)-methyl)-phenyl)-acetic acid]
7	O=C(O)Cc1cccc(CN(Cc2ccc(-c3nccs3)cc2)S(=O)(=O)c2cccnc2)c1 [Example 1u, (3-(((Pyridine-3-sulfonyl)-(4-thiazol-2-yl-benzyl)-amino)-methyl)-phenyl)-acetic acid]
9	Cn1cnc(S(=O)(=O)N(Cc2ccc(-c3nccs3)cc2)Cc2cccc(CC(=O)O)c2)c1 [Example 1v, (3-(((1-Methyl-1H-imidazole-4-sulfonyl)-(4-thiazol-2-yl-benzyl)-amino)-methyl)-phenyl)-acetic acid]
24	CN(C)c1ccc(CN(Cc2cccc(CC(=O)O)c2)S(=O)(=O)c2cccnc2)cc1 [Example 1w, (3-(((4-Dimethylamino-benzyl)-(pyridine-3-sulfonyl)-amino]-methyl)-phenyl)-acetic acid]
160	O=C(O)COc1cccc(CN(Cc2ccc(C3CCCCC3)cc2)S(=O)(=O)c2cccnc2)c1 [Example 1x, (3-(((4-Cyclohexyl-benzyl)-(pyridine-3-sulfonyl)-amino)-methyl)-phenoxy)-acetic acid]
13	O=C(O)COc1cccc(CN(CCOc2cc(Cl)cc(Cl)c2)S(=O)(=O)c2cccnc2)c1 [Example 1y, (3-(((2-(3.5-Dichloro-phenoxy)-ethyl)-(pyridine-3-sulfonyl)-amino)-methyl)-phenoxy)-acetic acid]
19	CN(C)c1ccc(CN(Cc2cccc(OCC(=O)O)c2)S(=O)(=O)c2cccnc2)cc1 [Example 1z, (3-(((4-Dimethylamino-benzyl)-(pyridine-3-sulfonyl)-amino)-methyl)-phenoxy)-acetic acid]
45	O=C(O)Cc1cccc(CN(CCOc2cccc(Cl)c2)S(=O)(=O)c2cccnc2)c1 [Example 2, (3-(((2-(3-Chloro-phenoxy)-ethyl)-(Pyridine-3-sulfonyl)-amino]-methyl)-phenyl)-acetic acid]
37	O=C(O)Cc1cccc(CN(C/C=C/c2cc(Cl)cc(Cl)c2)S(=O)(=O)c2cccnc2)c1 [Example 2a, Trans-(3-(((3-(3,5-Dichloro-phenyl)-allyl)-(pyridine-3-sulfonyl)-amino)-methyl)-phenyl)-acetic acid]
385	O=C(O)Cc1cccc(CN(CCOc2cc(Cl)cc(Cl)c2)S(=O)(=O)c2cccnc2)c1 [Example 2b, (3-(((2-(3.5-Dichloro-phenoxy)-ethyl)-(pyridine-3-sulfonyl)-amino)-methyl)-phenyl)-acetic acid]
440	O=C(O)c1ccc(CCCN(CCSc2cccc(Cl)c2)S(=O)(=O)c2cccnc2)s1 [Example 3a, 5-(3-((2-(3-Chloro-phenylsulfanyl)-ethyl)-(pyridine-3-sulfonyl)-amino)-propyl) thiophene-2-carboxylic acid]
7.83	O=C(O)COc1cccc(CN(Cc2ccc(-c3nccs3)cc2)S(=O)(=O)c2cccnc2)c1 [Example 3b, (3-(((Pyridine-3-sulfonyl)-(4-thiazol-2-yl-benzyl)-amino)-methyl)-phenoxy)-acetic acid.2TFA]
225	O=C(O)c1ccc(CCCN(CCCc2cccc(Cl)c2)S(=O)(=O)c2cccnc2)s1 [Example 4, 5-(3-((3-(3-Chloro-phenyl)-propyl)-(pyridine-3-sulfonyl)-amino)-propyl)-thiophene-2-carboxylic acid]
795	COc1ccc(S(=O)(=O)N(CCCc2cccc(Cl)c2)CCCc2ccc(C(=O)O)s2)cc1 [Example 4a, 5-(3-((3-(3-Chloro-phenyl)-propyl)-(4-methoxy-benzenesulfonyl)-amino)-propyl)-thiophene-2-carboxylic acid]
440	O=C(O)c1ccc(CCCN(CCCc2cccc(Cl)c2)S(=O)(=O)c2cccc3nsnc23)s1 [Example 4b, 5-(3-((Benzo[1,2.5]thiadiazole-4-sulfonyl)-(3-(3-chloro-phenyl)-propyl)-amino)-propyl)-thiophene-2-carboxylic acid]
175	O=C(O)c1ccc(CCCN(CCCc2cccc(Cl)c2)S(=O)(=O)Cc2ccccc2)s1 [Example 4d, 5-(3-((3-(3-Chloro-phenyl)-propyl)-phenylmethanesulfonyl-amino)-propyl)-thiophene-2-carboxylic acid]
410	O=C(O)c1ccc(CCCN(CCCc2cccc(Cl)c2)S(=O)(=O)c2cccnc2)o1 [Example 4e, 5-(3-((3-(3-Chloro-phenyl)-propyl)-(pyridine-3-sulfonyl)-amino)-propyl)-furan-2-carboxylic acid]
705	O=C(O)c1ccc(CCCN(CCCc2cccc(Cl)c2)S(=O)(=O)c2ccc3ccccc3c2)s1 [Example 4f, 5-(3-((3-(3-Chloro-phenyl)-propyl)-(naphthalene-2-sulfonyl)-amino)-propyl)-thiophene-2-carboxylic acid]
720	O=C(O)c1ccc(CCCN(CCCc2cccc(Cl)c2)S(=O)(=O)c2cccc3ccccc23)s1 [Example 4g, 5-(3-((3-(3-Chloro-phenyl)-propyl)-(naphthalene-1-sulfonyl)-amino)-propyl)-thiophene-2-carboxylic acid]
210	CC(=O)Nc1nc(C)c(S(=O)(=O)N(CCCc2cccc(Cl)c2)CCCc2ccc(C(=O)O)s2)s1 [Example 4h, 5-(3-((2-Acetylamino-4-methyl-thiazole-5-sulfonyl)-(3-(3-chloro-phenyl)-propyl)-amino)-propyl)-thiophene-2-carboxylic acid]
980	O=C(O)c1ccc(CCCN(CCCc2cccc(Cl)c2)C(=O)c2cccnc2)s1 [Example 5, 5-(3-((3-(3-Chloro-phenyl)-propyl)-(pyridine-3-carbonyl)-amino)-propyl)-thiophene-2-carboxylic acid]
355	O=C(O)c1ccc(CCCN(CCCc2cccc(Cl)c2)C(=O)Cc2ccccn2)s1 [Example 5a, 5-(3-((3-(3-Chloro-phenyl)-propyl)-(pyridin-2-yl-acetyl)-amino)-propyl)-thiophene-2-carboxylic acid]
640	O=C(O)c1ccc(CCCN(CCCc2cccc(Cl)c2)C(=O)Cc2cccnc2)s1 [Example 5b, 5-(3-((3-(3-Chloro-phenyl)-propyl)-(Pyridin-3-yl-acetyl)-amino)-propyl)-thiophene-2-carboxylic acid]
315	O=C(O)c1ccc(CCCN(CCCc2cccc(Cl)c2)S(=O)(=O)c2ccccc2Cl)s1 [Example 6, 5-(3-((2-Chloro-benzenesulfonyl)-(3-(3-chloro-phenyl)-propyl)-amino)-propyl)-thiophene-2-carboxylic acid]
325	Cc1ccc(C)c(S(=O)(=O)N(CCCc2cccc(Cl)c2)CCCc2ccc(C(=O)O)s2)c1 [Example 6a, 5-(3-((3-(3-Chloro-phenyl)-propyl)-(2,5-dimethyl-benzenesulfonyl)-amino)-propyl)-thiophene-2 carboxylic acid]
300	O=C(O)c1ccc(CCCN(CCCc2cccc(Cl)c2)S(=O)(=O)CCCCNC(=O)c2ccccc2C(=O)O)s1 [Example 6c, 5-(3-((4-(2-Carboxy-benzoylamino)-butane-1-sulfonyl)-(3-(3-chloro-phenyl)-propyl)-amino)-propyl)-thiophene-2-carboxylic acid]
170	O=C(O)c1ccc(CCCN(CCCc2cccc(Cl)c2)S(=O)(=O)c2ccc(-n3ncc(=O)[nH]c3=O)cc2)s1 [Example 6d, 5-(3-((3-(3-Chloro-phenyl)-propyl)-(4-(3,5-dioxo-4,5-dihydro-3H-[1,2,4]triazin-2-yl)-benzenesulfonyl)-amino)-propyl)-thiophene-2-carboxylic acid]
325	COC(=O)c1ccccc1S(=O)(=O)N(CCCc1cccc(Cl)c1)CCCc1ccc(C(=O)O)s1 [Example 6e, 5-(3-((3-(3-Chloro-Phenyl)-propyl)-(2-methoxycarbonyl-benzenesulfonyl)-amino)-propyl)-thiophene-2-carboxylic acid]
490	O=C(O)c1ccc(CCCN(CCCc2cccc(Cl)c2)S(=O)(=O)c2ccc(Br)cc2)s1 [Example 6f, 5-(3-((4-Bromo-benzenesulfonyl)-(3-(3-chloro-phenyl)-propyl)-amino)-propyl)-thiophene-2-carboxylic acid]
350	CCC(C)(C)c1ccc(S(=O)(=O)N(CCCc2cccc(Cl)c2)CCCc2ccc(C(=O)O)s2)cc1 [Example 6g, 5-(3-((3-(3-Chloro-phenyl)-propyl)-(4-(1,1-dimethyl-propyl)-benzenesulfonyl)-amino)-Propyl)-thiophene-2-carboxylic acid]
